# Results taken from US5300304A, “Pulsatile once-a-day delivery systems for minocycline” (priority 1992, dated 1994).
# Where two headings read alike, the source gives them in different places.
# What was measured:
# [1] = taken without food; cited from earlier work
# [2] = tested on: gram-negative and gram-positive bacteria; conditions: PDR 43rd Ed.; cited from earlier work
structure (smiles),measurement,setting,value
"CN(C)c1ccc(O)c2c1C[C@H]1C[C@H]3[C@H](N(C)C)C(=O)C(C(N)=O)=C(O)[C@@]3(O)C(=O)C1=C2O [minocycline, 7-dimethylamino-6-deoxy-6-demethyltetracycline]",bioavailability of minocycline in the gastrointestinal tract,"duodenum, based upon 100 percent absorption in the stomach",106%
same,absorption in the lower gastrointestinal tract,"human patients, intubation",reduced absorption
same,bioavailability of minocycline in the gastrointestinal tract,"ileum, based upon 100 percent absorption in the stomach",58%
same,bioavailability of minocycline in the gastrointestinal tract,"jejunum, based upon 100 percent absorption in the stomach",80%
same,bioavailability of minocycline in the gastrointestinal tract,"stomach, reference (100 percent absorption in the stomach)",100%
same,half life,[1],approximately 10 hours
same,organisms susceptible to minocycline therapy,[2],wide range of gram-negative and gram-positive bacteria
